Measurements as given in paper PMC8496776, “Staphylococcus aureus Lipase 3 (SAL3) is a surface-associated lipase that hydrolyzes short chain fatty acids” (PLoS ONE, 2021).

How the values were obtained:
[1] = target: T1, rSAL3 (Staphylococcus aureus lipase 3, SAL3) (Staphylococcus aureus, UniProt A0A0H2XHH9); experiment: LC-MS/MS loss of OAG without oleic acid release; also protein lipid overlay binding; format: biochemical; conditions: 2 h, 37 C, PBS; 2 ug/mL OAG; hydrolysis at the sn-2 acetate inferred
T1 construct: gene SAUSA300_0641

[2] = target: T1, rSAL3 (Staphylococcus aureus lipase 3, SAL3); experiment: p-nitrophenol release at […] nm; format: biochemical; conditions: 2 mM ester, 100 mM Tris HCl, 100 mM NaCl, pH 7, 37 C

T1 sequence (A0A0H2XHH9 entry or part of it): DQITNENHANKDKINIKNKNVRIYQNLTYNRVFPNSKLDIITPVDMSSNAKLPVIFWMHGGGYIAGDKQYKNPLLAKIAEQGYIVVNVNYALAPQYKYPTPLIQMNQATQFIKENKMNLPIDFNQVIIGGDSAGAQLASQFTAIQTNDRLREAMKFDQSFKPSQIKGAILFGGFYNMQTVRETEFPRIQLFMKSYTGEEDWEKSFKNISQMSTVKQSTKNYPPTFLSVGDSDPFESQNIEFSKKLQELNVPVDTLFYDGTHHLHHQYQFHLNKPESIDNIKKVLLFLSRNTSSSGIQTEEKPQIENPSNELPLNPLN

`CCCCCCCC/C=C\CCCCCCCC(=O)OCC(CO)OC(C)=O` (centres unmarked) [1-oleoyl 2-acetyl glycerol] was tested, and the “LC-MS/MS loss of OAG without oleic acid release; also protein lipid overlay bind” value [1] was “marked reduction in the substrate only in reactions containing WT rSAL3”.
In the case of `CCCC(=O)Oc1ccc([N+](=O)[O-])cc1` [pNP-C4, paranitrophenol butyrate], the specific activity [2] is reported as “Alanine substitution mutations introduced in rSAL3MUT abolished the activity against pNP-C4”.
